Molecules are shown by their SMILES.

This test deals with T1, Human V1b receptor (Homo sapiens, UniProt P47901).
T1 sequence (P47901 1-424): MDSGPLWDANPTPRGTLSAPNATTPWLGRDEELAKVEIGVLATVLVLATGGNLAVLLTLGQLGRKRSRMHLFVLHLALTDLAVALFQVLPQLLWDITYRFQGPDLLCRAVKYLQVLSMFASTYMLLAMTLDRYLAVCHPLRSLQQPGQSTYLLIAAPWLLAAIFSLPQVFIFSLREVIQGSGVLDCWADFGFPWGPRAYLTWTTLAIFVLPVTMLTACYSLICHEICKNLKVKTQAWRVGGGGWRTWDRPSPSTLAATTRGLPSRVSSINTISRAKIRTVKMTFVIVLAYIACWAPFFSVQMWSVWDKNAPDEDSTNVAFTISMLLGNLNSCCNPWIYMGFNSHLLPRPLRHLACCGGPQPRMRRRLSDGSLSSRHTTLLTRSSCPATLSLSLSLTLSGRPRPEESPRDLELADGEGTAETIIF
In words: Binding test for V1b receptor ([3H]AVP displacement, crude membrane preparation). Also on record: expressed in transfected cells; host or cells: 293FT cells (Invitrogen), transient expression; crude membrane preparation. The conditions noted are these: [3H]AVP 0.4 to 1 nmol/L; membranes of 293FT cells transiently expressing human V1b receptor; room temperature, 60 minutes. As for the experimental part: Binding Test for V1b Receptor
Human V1b receptor was transiently expressed in 293FT cells (Invitrogen). The cells were collected and were homogenated in a 15 mmol/L tris-hydrochloric acid buffer (pH 7.4, containing 2 mmol/L magnesium chloride, 0.3 mmol/L ethylenediaminetetracetic acid, and 1 mmol/L glycol ether diaminetetraacetic acid). The resulting homogenate was centrifuged at 50,000×g at 4° C. for 20 minutes. The precipitate was resuspended in a 75 mmol/L tris-hydrochloric acid buffer (pH 7.4, containing 12.5 mmol/L magnesium chloride, 0.3 mmol/L ethylenediaminetetracetic acid, 1 mmol/L glycol ether diamine tetraacetic acid, and 250 mmol/L sucrose) to give a crude membrane preparation, which was stored at −80° C. until the binding test. In the binding test, the crude membrane preparation was diluted with a 50 mmol/L tris-hydrochloric acid buffer (pH 7.4, containing 10 mmol/L magnesium chloride and 0.1% bovine serum albumin), and test compound was serially diluted with DMSO. The diluted crude membrane preparation was incubated with each test compound (final concentration of 0.01 nmol/L to 1 μmol/L) and [^3H]AVP (final concentration: 0.4 to 1 nmol/L) at room temperature for 60 minutes. After the incubation, the mixture was suction filtered through a GF/C filter pretreated with 0.3% polyethyleneimine. The GF/C filter was dried, and a scintillator was added thereto. The radioactivity remaining on the filter was measured using TopCount (PerkinElmer Inc.). The radioactivity in the presence of 10 μmol/L of unlabeled AVP was defined as 0%, and the radioactivity in the absence of unlabeled AVP was defined as 100%. A dose-response curve was plotted from radioactivities in the presence of a test compound at various concentrations, and the 50% inhibitory concentration (IC50 value) of the compound was calculated.
As usually defined, the IC50 is the concentration that gives 50% inhibition. In the case of `CC(CO)NC(=O)Cn1c(-c2cccc(Cl)c2)nn(-c2ccc(CCN3CCOCC3)cc2)c1=O` (racemic) [Ad-20, 2-[3-(3-Chlorophenyl)-1-{4-[2-(morpholin-4-yl)ethyl]phenyl}-5-oxo-1,5-dihydro-4H-1,2,4-triazol-4-yl]-N-(1-hydroxypropan-2-yl)acetamide], the IC50 was determined as 96 nM. The value for `CC(C)NC(=O)Cn1c(-c2cccc(Cl)c2)nn(-c2ccc(CC(C)N3C4CCC3COC4)cn2)c1=O` (single isomer, unassigned; (+)) [Ad-19-2] was 17 nM; that for `CC(C)NC(=O)Cn1c(-c2cccc(Cl)c2)nn(-c2ccc(CC(C)N3C4CCC3COC4)cn2)c1=O` (single isomer, unassigned; (-)) [Ad-19-1] was 0.59 nM.

`CC(C)NC(=O)Cn1c(-c2cccc(Cl)c2)nn(-c2ccc(CCN3CCC(O)C3)cc2)c1=O` (stereo not drawn) [Aa-6, 2-[3-(3-Chlorophenyl)-1-{4-[2-(3-hydroxypyrrolidin-1-yl)ethyl]phenyl}-5-oxo-1,5-dihydro-4H-1,2,4-triazol-4-yl]-N-(propan-2-yl)acetamide] returned an IC50 of 56 nM. This IC50 lies about 95-fold higher than the previous one.

For the molecule `CC(C)NC(=O)Cn1c(-c2cccc(Cl)c2)nn(-c2ccc(CCN3CCC(CO)C3)cc2)c1=O` (stereo not drawn) [Aa-7, 2-[3-(3-Chlorophenyl)-1-(4-{2-[3-(hydroxymethyl)pyrrolidin-1-yl]ethyl}phenyl)-5-oxo-1,5-dihydro-4H-1,2,4-triazol-4-yl]-N-(propan-2-yl)acetamide], the IC50 is 34 nM. Against the preceding molecule, the IC50 is about 1.6-fold lower.

`CC(C)NC(=O)Cn1c(-c2cccc(Cl)c2)nn(-c2ccc(CCN3CC4CCC(C3)O4)cc2)c1=O` [Aa-9, 2-[3-(3-Chlorophenyl)-1-{4-[2-(8-oxa-3-azabicyclo[3.2.1]oct-3-yl)ethyl]phenyl}-5-oxo-1,5-dihydro-4H-1,2,4-triazol-4-yl]-N-(propan-2-yl)acetamide] displayed an IC50 of 18 nM. The value for `CC(C)NC(=O)Cn1c(-c2cccc(Cl)c2)nn(-c2ccc(CCN3CCCCC3)cc2)c1=O` [Aa-11, 2-[3-(3-Chlorophenyl)-5-oxo-1-{4-[2-(piperidin-1-yl)ethyl]phenyl}-1,5-dihydro-4H-1,2,4-triazol-4-yl]-N-(propan-2-yl)acetamide] was 37 nM; that for `CC(C)NC(=O)Cn1c(-c2cccc(Cl)c2)nn(-c2ccc(CCN3CCCOCC3)cc2)c1=O` [Aa-13, 2-[3-(3-Chlorophenyl)-1-{4-[2-(1,4-oxazepan-4-yl)ethyl]phenyl}-5-oxo-1,5-dihydro-4H-1,2,4-triazol-4-yl]-N-(propan-2-yl)acetamide] was 20 nM; that for `CC(C)NC(=O)Cn1c(-c2cccc(Cl)c2)nn(-c2ccc(CCN3C4CCC3CC(O)C4)cn2)c1=O` (stereo not drawn) [Ab-4, 2-[3-(3-Chlorophenyl)-1-{5-[2-(3-hydroxy-8-azabicyclo[3.2.1]oct-8-yl)ethyl]pyridin-2-yl}-5-oxo-1,5-dihydro-4H-1,2,4-triazol-4-yl]-N-(propan-2-yl)acetamide] was 20 nM. To `CC(C)NC(=O)Cn1c(-c2cccc(Cl)c2)nn(-c2ccc(CCN3CCOCC3)nc2)c1=O` [Ac-2, 2-[3-(3-Chlorophenyl)-1-{6-[2-(morpholin-4-yl)ethyl]pyridin-3-yl}-5-oxo-1,5-dihydro-4H-1,2,4-triazol-4-yl]-N-(propan-2-yl)acetamide] belongs 79 nM; to `CC(C)(C)NC(=O)Cn1c(-c2cccc(Cl)c2)nn(-c2ccc(CCN3CCOCC3)cc2)c1=O` [Ad-1, N-Tert-Butyl-2-[3-(3-chlorophenyl)-1-{4-[2-(morpholin-4-yl)ethyl]phenyl}-5-oxo-1,5-dihydro-4H-1,2,4-triazol-4-yl]acetamide], 2.5 nM.

On to `CC(NC(=O)Cn1c(-c2cccc(Cl)c2)nn(-c2ccc(CCN3CCOCC3)cc2)c1=O)C(F)(F)F` (stereo not drawn) [Ad-2, 2-[3-(3-Chlorophenyl)-1-{4-[2-(morpholin-4-yl)ethyl]phenyl}-5-oxo-1,5-dihydro-4H-1,2,4-triazol-4-yl]-N-(1,1,1-trifluoropropan-2-yl)acetamide], for which the IC50 stood at 15 nM.

For the origin of these results see patent publication US9193695B2, “1, 2, 4-triazolone derivative and use thereof as an antagonist on the arginine-vasopressin 1B receptor” (TAISHO PHARMACEUTICAL CO., LTD., priority 2010, dated 2015).
